Laboratory results reported in patent US20080287526A1, “Pharmaceuticals for treating or preventing oral diseases” (HAWLEY & HAZEL (BVI) COMPANY LIMITED, priority 2007, published 2008).

What was measured:
[1] = system: Actinomyces viscosus ATCC 27044; assay: Antibacterial MIC, micro-dilution method; format: cell-based; settings: minimum inhibitive concentration; 2-fold dilution series 250-0.12 mg/L, ceiling 250 ppm; 37 °C, 18-24 h; unit not given
Protocol: (§1) A single colony was picked from the Trypticase Digested Soybean peptone agar blood plate (TSA5B) of ordinarily stored bacteria species and used to inoculate corresponding broth culture medium, which was cultivated in a microaerobic environment (P.g needs anaerobic cultivation) with 95% air, 5% CO2 at 37.0° C.±1.0° C., wherein S.m was cultivated for 18-24 h, and the remaining two species were cultivated for 40-48 h. Then corresponding broth cultivate medium was used to adjust the turbidity of the bacteria suspension to 0.5^# McFarland standard, equivalent to 1.0×10^8 CFU/mL.
(§2) The operating steps were:
(§3) a. Preparation of the stock solution of antibacterial pharmaceutical: 1% stock solution of various antibacterial pharmaceuticals was prepared with 100% pure ethanol as solvent. The prepared stock solution was filtered to eliminate bacteria, and was distributed into small portions to be used.
(§4) b. Range of measured concentration: the present experiment used 250 ppm as the ceiling measured concentration of the anti-bacterial pharmaceutical.
(§5) c. Measuring method: micro-dilution method.
(§6) First, 100 μL broth medium was added to each well of the 96-well plate, then 100 μL sterile anti-bacteria pharmaceutical solution, which was diluted 10-fold (1000 mg/L), was added to each well of the first column. Then each well of the first column was mixed repeatedly for 7-8 times using a multi-channel micropipet, and 100 μL sample was transferred to the second column after sufficiently mixing the pharmaceutical with TSB. After being mixed similarly for 7-8 times, 100 μL sample was transferred to the third column, and likewise to the wells of the remaining columns. Thus the concentration of the pharmaceutical was gradiently diluted 2-fold between the columns, from 500 mg/L in the first column to 0.24 mg/L in the last column (the 12th column).
(§7) The bacteria to be tested and the standard bacteria were prepared using the same method as above. […] 0.12 mg/L, and the final inoculation quantity was about […] or 5×10^6 bacteria in each well. […]

[2] = system: Porphyromonas gingivalis ATCC 33277; assay: Antibacterial MIC, micro-dilution method; format: cell-based; settings: minimum inhibitive concentration; anaerobic; 2-fold dilution series 250-0.12 mg/L, ceiling 250 ppm; 37 °C, 18-24 h; unit not given
Protocol: as §1, §2, §3, §4, §5, §6, §7

[3] = system: Streptococcus mutans ATCC 25175; assay: Antibacterial MIC, micro-dilution method; format: cell-based; settings: minimum inhibitive concentration; 2-fold dilution series 250-0.12 mg/L, ceiling 250 ppm; 37 °C, 18-24 h; unit not given
Protocol: as §1, §2, §3, §4, §5, §6, §7

GM-CSF = assay: Anti-inflammatory effect in KB cells, LUMINEX analysis of GM-CSF; format: cell-based, human; settings: KB cell supernatant; the larger the value, the stronger the anti-inflammatory ability; test concentration not given
Protocol: (§8) Anti-inflammatory activity was assessed using the KB cell (the epidermis cancer cell in human oral cavity). During the experiment, the KB cell inoculated in the cultivating plate was treated with or without positive control or compound Morusin A. After the treatment, the supernatant of the cultivating medium was collected and stored in −80° C. refrigerator. Inflammation was assessed by measuring several inflammation markers: Prostaglandin E2 (PGE2) in the supernatant was detected by Enzyme-linked immunosorbent assay, and LUMINEX™ multifunctional liquid-phase chip analysis system was used for the detection of granulocyte monocyte colony stimulating factor (GM-CSF), tumor necrosis factor-alpha (TNF-α), and interleukins 1-beta and 6 (IL-1β and IL-6).
(§9) LUMINEX™ multifunctional liquid-phase chip analyses of GM-CSF, TNF-α, IL-1 and IL-6: The 96-well plate was enclosed with enclosing liquid for 30 minutes. Fluorescent microspheres were added into the 96-well plate after dilution. The standard and the samples to be measured were added, and incubated overnight at 4° C. The next day, the supernatant was discarded and 50 μL GM-CSF, TNF-α, IL-1β and IL-6 antibodies were added to each well. After being rinsed for 4 times, the 96-well plate was placed in a shaking table, which was in ambient temperature, to keep the plate away from light for one hour. […]

IL-1β = assay: Anti-inflammatory effect in KB cells, LUMINEX analysis of IL-1β; format: cell-based, human; settings: KB cell supernatant; the larger the value, the stronger the anti-inflammatory ability; test concentration not given
Protocol: as §8, §9

IL-6 = assay: Anti-inflammatory effect in KB cells, LUMINEX analysis of IL-6; format: cell-based, human; settings: KB cell supernatant; the larger the value, the stronger the anti-inflammatory ability; test concentration not given
Protocol: as §8, §9

TNF-α = assay: Anti-inflammatory effect in KB cells, LUMINEX analysis of TNF-α; format: cell-based, human; settings: KB cell supernatant; the larger the value, the stronger the anti-inflammatory ability; test concentration not given
Protocol: as §8, §9

- MIC, A. v ATCC 27044 [1]: 3.9
- MIC, P. g ATCC 33277 [2]: 15.6
- MIC, S. m ATCC 25175 [3]: 3.9
Structure (SMILES): CC1=C[C@H]2c3c(O)cc(-c4cc5ccc(O)cc5o4)cc3O[C@]3(c4ccc(O)cc4O)Oc4cc(O)ccc4[C@H](C1)[C@@H]23 [Morusin A]
- anti-inflammatory effect, GM-CSF (GM-CSF): 11%
- anti-inflammatory effect, IL-1β (IL-1β): 23%
- anti-inflammatory effect, IL-6 (IL-6): 53%
- anti-inflammatory effect, TNF-α (TNF-α): 93%
